Reference: patent US12458677B2, “Method for preparing Gynostemma pentaphyllum leaf extract and Gynostemma pentaphyllum leaf extract prepared thereby” (BIONIC TRADING CORPORATION, priority 2022, dated 2025)

Legend:
MuRF-1 = MuRF-1 mRNA expression (RT-PCR) in TNF-α-treated L6 myotubes; format: cell-based; conditions: TNF-α 50 ng/ml alone, 6 hours
Procedure: (§1) L6 myoblasts (ATCC) were seeded onto a 6-well plate at 2×10^5 cell/mL and then cultured in DMEM (Hyclone) containing 10% FBS (Hyclone). When the cell density reached about 80-85%, the L6 cells were differentiated into myotubes by removing the medium from the well and replacing with DMEM (Hyclone) containing 2% HS (Hyclone). The differentiation was conducted for a total of 6 days while replacing with a fresh medium every other day. After the differentiation, the Gynostemma pentaphyllum leaf extract of Examples or Comparative Example was dissolved in DMEM containing 50 ng/mL of TNF-α to a concentration of 40 μg/mL and treated to the cells. 6 hours later, total RNAs were isolated using a TRIzol reagent (Takara, Osaka, Japan). The isolated total RNAs were quantified using NanoDrop 1000 (Thermo Fisher Scientific Inc., Waltham, MA, USA). 16 μL of the quantified RNAs were mixed with a reverse transcriptase premix (ELPIS-Biotech) and cDNAs were synthesized under the condition of 55 minutes at 42° C. and 15 minutes at 70° C. using a PCR machine (Gene Amp PCR System 2700; Applied Biosystems, Foster City, CA, USA). […]

Atrogin-1 = Atrogin-1 mRNA expression (RT-PCR) in TNF-α-treated L6 myotubes; format: cell-based; conditions: TNF-α 50 ng/ml alone, 6 hours
Procedure: as §1

With TNF-α as the substance, how does the “MuRF-1 (% of control group)” value (MuRF-1) read?
The value was 411.5 ± 32.7 % of control group.

What about the “Atrogin-1 (% of control group)” value (Atrogin-1) of the same substance?
Its value is 248.5 ± 26.4 % of control group.
